Test results reported in patent US5591714A, “Derivatives of A82846” (priority 1994, dated 1997).
Converted amounts (≈) assume the structure as drawn.

Key:
[1] = tested on: Haemophilus influenzae 76; assay: MIC, standard agar-dilution assay; type: cell-based
Protocol: (§1) The formula I compounds have in vitro and in vivo activity against Gram-positive pathogenic bacteria. The MIC's were determined using a standard agar-dilution assays.

[2] = tested on: Haemophilus influenzae C.L.; assay: MIC, standard agar-dilution assay; type: cell-based
Protocol: as §1

[3] = tested on: Streptococcus pyogenes C203; assay: MIC, standard agar-dilution assay; type: cell-based
Protocol: as §1

[4] = tested on: Staphylococcus epidermidis EPI270; assay: MIC, standard agar-dilution assay; type: cell-based
Protocol: as §1

[5] = tested on: Staphylococcus aureus NRRL X1.1; assay: MIC, standard agar-dilution assay; type: cell-based
Protocol: as §1

[6] = tested on: Staphylococcus aureus V41; assay: MIC, standard agar-dilution assay; type: cell-based
Protocol: as §1

[7] = tested on: Klebsiella pneumoniae X26; assay: MIC, standard agar-dilution assay; type: cell-based
Protocol: as §1

Escherichia coli EC14 = assay: MIC, standard agar-dilution assay; type: cell-based
Protocol: as §1

[8] = tested on: Staphylococcus aureus X400; assay: MIC, standard agar-dilution assay; type: cell-based
Protocol: as §1

[9] = tested on: Klebsiella pneumoniae X68; assay: MIC, standard agar-dilution assay; type: cell-based
Protocol: as §1

[10] = tested on: Staphylococcus epidermidis 222; assay: MIC, standard agar-dilution assay; type: cell-based
Protocol: as §1

Escherichia coli N10 = assay: MIC, standard agar-dilution assay; type: cell-based
Protocol: as §1

[11] = tested on: Klebsiella pneumoniae KAE; assay: MIC, standard agar-dilution assay; type: cell-based
Protocol: as §1

Escherichia coli TEM = assay: MIC, standard agar-dilution assay; type: cell-based
Protocol: as §1

Streptococcus pyogenes = assay: In vivo activity, experimentally infected mice (ED50); conditions: Streptococcus pyogenes infection; doses administered subcutaneously to mice 1 and 4 hours postinfection
[12] = tested on: Enterococcus faecalis 2041; assay: MIC, standard agar-dilution assay; type: cell-based
Protocol: as §1
^c Formerly Streptococcus faecalis 2041

Streptococcus pneumoniae = assay: In vivo activity, experimentally infected mice (ED50); conditions: Streptococcus pneumoniae infection; doses administered subcutaneously to mice 1 and 4 hours postinfection
Enterococcus faecium X66 = assay: MIC, standard agar-dilution assay; type: cell-based
Protocol: as §1
^b Formerly Streptococcus faecium X66

[13] = tested on: Staphylococcus aureus S13E; type: cell-based
Protocol: as §1

[14] = tested on: Streptococcus pneumoniae Park 1; type: cell-based
Protocol: as §1

Staphylococcus aureus = assay: In vivo activity, experimentally infected mice (ED50); conditions: Staphylococcus aureus infection; doses administered subcutaneously to mice 1 and 4 hours postinfection

SMILES | MIC [1] [mg/L] | MIC [2] [mg/L] | MIC [3] | MIC [4] [mg/L] | MIC [5] | MIC [6] | MIC [7] [mg/L] | MIC (Escherichia coli EC14) [mg/L] | MIC [8] | MIC [9] [mg/L] | MIC [10] | MIC (Escherichia coli N10) [mg/L] | MIC [11] [mg/L] | MIC (Escherichia coli TEM) [mg/L] | ED50 (Streptococcus pyogenes) [mg/kg/2] | MIC [12] | ED50 (Streptococcus pneumoniae) [mg/kg/2] | MIC (Enterococcus faecium X66) | MIC [13] | MIC [14] | also measured
CCCCCN[C@@]1(C)C[C@H](O[C@H]2[C@H](Oc3c4cc5cc3Oc3ccc(cc3Cl)[C@@H](O[C@H]3C[C@](C)(N)[C@@H](O)[C@H](C)O3)[C@@H]3NC(=O)[C@H](NC(=O)[C@@H]5NC(=O)[C@H](CC(N)=O)NC(=O)[C@H](NC(=O)[C@@H](CC(C)C)NC)[C@H](O)c5ccc(c(Cl)c5)O4)c4ccc(O)c(c4)-c4c(O)cc(O)cc4[C@@H](C(=O)O)NC3=O)O[C@H](CO)[C@@H](O)[C@@H]2O)O[C@@H](C)[C@@H]1O [Compound 34] | > 128 | > 128 | .5 mg/L (≈ 0.301 µM) | 2 (≈ 1.2 µM) | .5 mg/L (≈ 0.301 µM) | .5 mg/L (≈ 0.301 µM) | > 128 | > 128 | 1 mg/L (≈ 0.601 µM) | > 128 | .5 mg/L (≈ 0.301 µM) | > 128 | > 128 | > 128 | 0.44 | 1 mg/L (≈ 0.601 µM) | 0.44 | .5 mg/L (≈ 0.301 µM) | .5 mg/L (≈ 0.301 µM) | .5 mg/L (≈ 0.301 µM) | ED50 (Staphylococcus aureus): 0.77 mg/kg/2
CNC(CC(C)C)C(=O)NC1C(=O)NC(CC(N)=O)C(=O)NC2C(=O)NC3C(=O)NC(C(=O)NC(C(=O)O)c4cc(O)cc(O)c4-c4cc3ccc4O)C(OC3CC(C)(N)C(O)C(C)O3)c3ccc(c(Cl)c3)Oc3cc2cc(c3OC2OC(CO)C(O)C(O)C2OC2CC(C)(NCc3ccccc3)C(O)C(C)O2)Oc2ccc(cc2Cl)C1O (stereo not drawn) [Compound 51] | > 128 | > 128 | .25 mg/L (≈ 0.149 µM) | 1 (≈ 0.594 µM) | .25 mg/L (≈ 0.149 µM) | .5 mg/L (≈ 0.297 µM) | > 128 | > 128 | .5 mg/L (≈ 0.297 µM) | > 128 | .5 mg/L (≈ 0.297 µM) | > 128 | > 128 | > 128 | 0.16 | .5 mg/L (≈ 0.297 µM) | 0.35 | .25 mg/L (≈ 0.149 µM) | .25 mg/L (≈ 0.149 µM) | .125 mg/L (≈ 0.0743 µM) | ED50 (Staphylococcus aureus): 0.34 mg/kg/2
CNC(CC(C)C)C(=O)NC1C(=O)NC(CC(N)=O)C(=O)NC2C(=O)NC3C(=O)NC(C(=O)NC(C(=O)O)c4cc(O)cc(O)c4-c4cc3ccc4O)C(OC3CC(C)(NCc4ccccc4)C(O)C(C)O3)c3ccc(c(Cl)c3)Oc3cc2cc(c3OC2OC(CO)C(O)C(O)C2O)Oc2ccc(cc2Cl)C1O (stereo not drawn) [Compound 76] | > 128 | > 128 | .5 mg/L (≈ 0.325 µM) | 2 (≈ 1.3 µM) | .25 mg/L (≈ 0.162 µM) | .25 mg/L (≈ 0.162 µM) | > 128 | > 128 | .25 mg/L (≈ 0.162 µM) | > 128 | .5 mg/L (≈ 0.325 µM) | > 128 | > 128 | > 128 | 0.62 | 1 mg/L (≈ 0.65 µM) | 0.42 | 1 mg/L (≈ 0.65 µM) | .25 mg/L (≈ 0.162 µM) | 1 mg/L (≈ 0.65 µM) | ED50 (Staphylococcus aureus): 0.87 mg/kg/2
